Assays:
PPAR-γ = test: Analysis of expression level of PPAR-γ (Western blot) in sebocytes; format: cell-based; details: human sebocytes, 24 hours
Method: An expression level of PPAR-γ was determined through Western blot in Examples and Comparative Examples of the present invention.
Specifically, human sebocytes were cultured in a 12-well plate containing a Dulbecco's modified eagle medium (DMEM)/F12 (1:1) medium supplemented with 10% fetal bovine serum (FBS) to attach 1.5×10^5 (1 mL/well) sebocytes to the 12-well plate. The sebocytes were cultured for 24 hours, and the medium was replaced with a serum-free medium. Then, an experimental group in which the cells were treated with each of the compounds of Examples or Comparative Examples was cultured for 24 hours, and the cells were then recovered. Thereafter, each of these samples was subjected to Western blot to analyze an expression level of PPAR-γ in the sebocytes. A sample (100 μM) of Example 1 or 2 or Comparative Example 1 or 2 including the amide-based compound having a structure shown in the following Table 1 was used as the sample. Also, a sample treated with 10 μM IGF-1 was used as the positive control, and the control in which the cells were not treated with the sample was used as the comparison group.

filaggrin = test: Expression level of filaggrin gene in keratinocytes (Real-Time PCR); format: cell-based, human; details: sample 100 μM, 24 hours
Method: (§1) To determine effects of the samples of Examples and Comparative Examples of the present invention on promotion of expression of moisturizing factors, expression levels of filaggrin and loricrin were measured.
(§2) Specifically, keratinocytes commercially available from Invitrogen Corp. were cultured for a predetermined period of time in an EpiLife medium (keratinocyte growth media:keratinocyte growth medium) supplemented with a human keratinocyte growth supplement (HKGS), subcultured three times, and then used. The keratinocytes which were subcultured 3 times were cultured to a confluence of 70 to 80% in a 6-well plate, and each of the wells was separately treated with each of the samples. Thereafter, the cells were cultured for a total of 24 hours. RNA of the keratinocytes was extracted from the cultured cells using an easy BLUE reagent, and cDNA was synthesized using a SuperScript reverse transcriptase III kit. A 7500 Fast Real-Time PCR for genetic comparison was performed using a 2×TaqMan universal PCR mixture (10 μL), a 20×TaqMan expression assay mix (1 μL), cDNA (50 ng), and primers (Filaggrin: Hs00856927_g1*, Loricrin: Hs01894962_s1*). Also, a sample treated with 10 μM IGF-1 was used as the positive control, and the control in which the cells were not treated with the sample was used as the comparison group.

loricrin = test: Expression level of loricrin gene in keratinocytes (Real-Time PCR); format: cell-based, human; details: sample 100 μM, 24 hours
Method: as §1, §2

CD44 = test: Analysis of expression level of CD44 in adipose tissue-derived mesenchymal stem cells; format: cell-based, human; details: hADSCs, sample 100 μM
Method: For flow cytometric analysis of the adipose tissue-derived stem cells of Examples and Comparative Examples of the present invention, an expression level of CD44 was measured. For this purpose, each of the samples was added to each medium. A sample (100 μM) of Example 1 or 2 or Comparative Example 1 or 2 including the amide-based compound having a structure shown in the following Table 1. Also, a sample treated with 10 μM IGF-1 was used as the positive control, and the control in which the cells were not treated with the sample was used as the comparison group.
Specifically, RNA was isolated from human adipose tissue-derived mesenchymal stem cells (hADSCs) according to the manufacturer's instructions using an easy BLUE reagent. The isolated RNA was dissolved in distilled water supplemented with diethyl procarbonate (DEPC), and the absorbance was measured at 260 nm, and a concentration of the RNA was quantified, and then used for experiments. Then, an expression level of CD44 in the adipose tissue-derived stem cells was analyzed.

CCCCCCCCCC(=O)NC(CO)CO [Example 1, N-(2-hydroxy-1-(hydroxymethyl)ethyl)decanamide] was tested, and the “effect of improving the expression of PPAR-γ” value (PPAR-γ; sample 100 μM) was 128.4%, the “enhanced expression level of filaggrin, compared to the control” value (filaggrin) was no less than 300% and the “enhanced expression level of loricrin, compared to the control” value (loricrin) was no less than 400%.
For “IGF-1: positive control, sample treated with 10 μM IGF-1 [reference compound]”, the “expression of PPAR-γ (in words)” value (PPAR-γ; IGF-1 10 μM, samples 100 μM) was “promoted”.
For CCCCCC(=O)NCC(O)CO (stereo not shown) [Example 2, N-(2,3-dihydroxypropyl)hexanamide], the “effect of improving the expression of PPAR-γ” value (PPAR-γ; sample 100 μM) was 140.8%.
For CCCCCCCC(=O)NCCO [Comparative Example 2, N-(2-hydroxyethyl)octanamide, reference compound], the “inhibited the expression of PPAR-γ, compared to the control” value (PPAR-γ; sample 100 μM) was 75.5% and the “expression level of CD44 (in words), compared to the control” value (CD44) was “lower expression level of CD44”.

— patent US11744791B2, “Cosmetic composition comprising amide-based compound” (Neopharm Co., Ltd., priority 2020, dated 2023)
